Data taken from paper PMC8260761, “A bacteriocin-based treatment option for Staphylococcus haemolyticus biofilms” (Scientific Reports, 2021).

Legend:
Test in all cases: Spot-on-lawn inhibition assay
Type in all cases: cell-based
E. faecalis = test system: E. faecalis; design: key: –: “−” = No inhibition; “+” = Unclear zone; “++” = zone < 1 cm; “+++” = zone ≥ 1 cm; details: 5 µl at 1 mg/ml, n=3
Procedure: (§1) A semi-quantitative spot-on-lawn inhibitory assay was performed on 51 bacterial indicator strains (Table S1) to determine the bacteriocins inhibition spectra. Overnight cultures were diluted 1:100 in BHI soft agar and distributed on BHI agar plates. Once solidified, bacteriocins with various concentrations were applied on designated spots. The plates were incubated at appropriate temperature O/N and inhibition zones were measured the following day. To determine minimal inhibitory concentration (MIC50) of H1 against clinical S. haemolyticus isolates (Table S2), as well as strains heterologously expressing RseP (Table S4), the microtiterplate antimicrobial assay was performed as previously described[41],[79]. MIC50 was defined as the minimal bacteriocin concentration needs to inhibit the growth of a bacterial strain by at least 50%.

Enterococcus avium = test system: Enterococcus avium; design: key: –: “−” = No inhibition; “+” = Unclear zone; “++” = zone < 1 cm; “+++” = zone ≥ 1 cm; details: Enterococcus avium LMG 3465; 5 µl at 1 mg/ml; n=3
Procedure: as §1

L. ivanovii = test system: L. ivanovii; design: key: –: “−” = No inhibition; “+” = Unclear zone; “++” = zone < 1 cm; “+++” = zone ≥ 1 cm; details: L. ivanovii Li4; 5 µl at 1 mg/ml; n=3
Procedure: as §1

L. plantarum = test system: L. plantarum; design: key: –: “−” = No inhibition; “+” = Unclear zone; “++” = zone < 1 cm; “+++” = zone ≥ 1 cm; details: L. plantarum LMG 2352; 5 µl at 1 mg/ml; n=3
Procedure: as §1

Lactococcus garvieae = test system: Lactococcus garvieae; design: key: –: “−” = No inhibition; “+” = Unclear zone; “++” = zone < 1 cm; “+++” = zone ≥ 1 cm; details: Lactococcus garvieae DCC43; 5 µl at 1 mg/ml; n=3
Procedure: as §1

E. faecium = details: 5 µl at 1 mg/ml, n=3
Procedure: as §1

Lactobacillus curvatus = details: 5 µl at 1 mg/ml, n=3
Procedure: as §1

S. homonis = S. homonis LMG 3129; 5 µl at 1 mg/ml; n=3
Procedure: as §1

Carnobacterium divergens = test system: Carnobacterium divergens; design: key: “-“ = No inhibition; “+” = Unclear zone; “++” = zone < 1 cm; “+++”= zone > 1 cm; details: Carnobacterium divergens NCDO 2306; 5 µl at 1 mg/ml; n=3
Procedure: as §1

Esherichia coli = test system: Esherichia coli; design: key: “-“ = No inhibition; “+” = Unclear zone; “++” = zone < 1 cm; “+++”= zone > 1 cm; details: 5 µl at 1 mg/ml, n=3
Procedure: as §1

L. gelidum = test system: L. gelidum; design: key: “-“ = No inhibition; “+” = Unclear zone; “++” = zone < 1 cm; “+++”= zone > 1 cm; details: L. gelidum LMG 2386; 5 µl at 1 mg/ml; n=3
Procedure: as §1

L. lactis = test system: L. lactis; design: key: “-“ = No inhibition; “+” = Unclear zone; “++” = zone < 1 cm; “+++”= zone > 1 cm; details: 5 µl at 1 mg/ml, n=3
Procedure: as §1

L. sakei = test system: L. sakei; design: key: “-“ = No inhibition; “+” = Unclear zone; “++” = zone < 1 cm; “+++”= zone > 1 cm; details: 5 µl at 1 mg/ml, n=3
Procedure: as §1

L. salivarius = test system: L. salivarius; design: key: “-“ = No inhibition; “+” = Unclear zone; “++” = zone < 1 cm; “+++”= zone > 1 cm; details: L. salivarius UCC118; 5 µl at 1 mg/ml; n=3
Procedure: as §1

S. aureus = test system: S. aureus; design: key: “-“ = No inhibition; “+” = Unclear zone; “++” = zone < 1 cm; “+++”= zone > 1 cm; details: 5 µl at 1 mg/ml, n=3
Procedure: as §1

S. simulans = test system: S. simulans; design: key: “-“ = No inhibition; “+” = Unclear zone; “++” = zone < 1 cm; “+++”= zone > 1 cm; details: S. simulans LMG 3233; 5 µl at 1 mg/ml; n=3
Procedure: as §1

S. thermophilus = test system: S. thermophilus; design: key: “-“ = No inhibition; “+” = Unclear zone; “++” = zone < 1 cm; “+++”= zone > 1 cm; details: S. thermophilus Sfi13; 5 µl at 1 mg/ml; n=3
Procedure: as §1

S. uberis = test system: S. uberis; design: key: “-“ = No inhibition; “+” = Unclear zone; “++” = zone < 1 cm; “+++”= zone > 1 cm; details: 5 µl at 1 mg/ml, n=3
Procedure: as §1

[1] = test system: Streptococcus dysgalactiae; design: key: “-“ = No inhibition; “+” = Unclear zone; “++” = zone < 1 cm; “+++”= zone > 1 cm; details: Streptococcus dysgalactiae 7649-3; 5 µl at 1 mg/ml; n=3
Procedure: as §1

[2] = Lactobacillus curvatus LTH 1174

| Sequence | Average inhibition score (E. faecalis; E. faecalis LMG 2333) | Average inhibition score (E. faecalis; E. faecalis LMG 3330) | Average inhibition score (E. faecalis; E. faecalis LMG 3331) | Average inhibition score (E. faecalis; E. faecalis LMG 3332) | Average inhibition score (E. faecalis; E. faecalis V583) | Average inhibition score (Enterococcus avium) | Average inhibition score (L. ivanovii) | Average inhibition score (L. plantarum) | Average inhibition score (Lactococcus garvieae) | Average inhibition score (E. faecium; E. faecium AL41) | Average inhibition score (E. faecium; E. faecium L50) | Average inhibition score (E. faecium; E. faecium P13) | Average inhibition score (E. faecium; E. faecium P21) | Average inhibition score (Lactobacillus curvatus; L. curvatus LMG 2353) | Average inhibition score (Lactobacillus curvatus; [2]) | Average inhibition score (S. homonis) | Average inhibition score (Carnobacterium divergens) | Average inhibition score (Esherichia coli; E. coli TG1) | Average inhibition score (Esherichia coli; Esherichia coli DH5α) | Average inhibition score (L. gelidum) | further results |
| --- | --- | --- | --- | --- | --- | --- | --- | --- | --- | --- | --- | --- | --- | --- | --- | --- | --- | --- | --- | --- | --- |
| MKFKFNPTGTIVKKLTQYEIAWFKNKHGYYPWEIPRC [K1, enterocin K1] | + | + | + | + | + | + | + | + | +++ (“+++”= zone > 1 cm) | ++ (“++” = zone < 1 cm) | ++ (“++” = zone < 1 cm) | +++ (“+++”= zone > 1 cm) | ++ (“++” = zone < 1 cm) | +++ (“+++”= zone > 1 cm) | +++ (“+++”= zone > 1 cm) | ++ (“++” = zone < 1 cm) | - | - | - | - | Average inhibition score (L. lactis; L. lactis IL1403): +++ (“+++”= zone > 1 cm); Average inhibition score (L. lactis; L. lactis LMG 2081): -; Average inhibition score (L. sakei; L. sakei 148): +++ (“+++”= zone > 1 cm); Average inhibition score (L. sakei; L. sakei LMG 2380): ++ (“++” = zone < 1 cm); Average inhibition score (L. salivarius): -; Average inhibition score (S. aureus; S. aureus ATCC14458): -; Average inhibition score (S. aureus; S. aureus LMG 3263): -; Average inhibition score (S. aureus; S. aureus LMG 3325): -; Average inhibition score (S. aureus; S. aureus LMG 3326): -; Average inhibition score (S. aureus; S. aureus LMG 3328): -; Average inhibition score (S. aureus; S. aureus LMG 3329): -; Average inhibition score (S. simulans): -; Average inhibition score (S. thermophilus): -; Average inhibition score (S. uberis; S. uberis 8008-1): -; Average inhibition score [1]: - |
| MLAKIKAMIKKFPNPYTLAAKLTTYEINWYKQQYGRYPWERPVA [EJ97, enterocin EJ97] | +++ (“+++”= zone > 1 cm) | +++ (“+++”= zone > 1 cm) | +++ (“+++”= zone > 1 cm) | +++ (“+++”= zone > 1 cm) | + | +++ (“+++”= zone > 1 cm) | + | ++ (“++” = zone < 1 cm) | + | +++ (“+++”= zone > 1 cm) | +++ (“+++”= zone > 1 cm) | +++ (“+++”= zone > 1 cm) | +++ (“+++”= zone > 1 cm) | +++ (“+++”= zone > 1 cm) | +++ (“+++”= zone > 1 cm) | +++ (“+++”= zone > 1 cm) | - | - | - | - | Average inhibition score (L. lactis; L. lactis IL1403): +++ (“+++”= zone > 1 cm); Average inhibition score (L. lactis; L. lactis LMG 2081): -; Average inhibition score (L. sakei; L. sakei 148): -; Average inhibition score (L. sakei; L. sakei LMG 2380): -; Average inhibition score (L. salivarius): -; Average inhibition score (S. aureus; S. aureus ATCC14458): -; Average inhibition score (S. aureus; S. aureus LMG 3325): -; Average inhibition score (S. aureus; S. aureus LMG 3328): -; Average inhibition score (S. aureus; S. aureus LMG 3329): -; Average inhibition score (S. simulans): -; Average inhibition score (S. thermophilus): -; Average inhibition score (S. uberis; S. uberis 7904-3): -; Average inhibition score (S. uberis; S. uberis 8008-1): -; Average inhibition score [1]: - |
